Test: xn = mol fraction of the nth substance listed
Details: 101 kPa

SMILES	viscosity (298.15 K, x1 = 0.333) [mPa·s]	viscosity (303.15 K, x1 = 0.333) [mPa·s]	viscosity (308.15 K, x1 = 0.333) [mPa·s]	viscosity (313.15 K, x1 = 0.333) [mPa·s]	viscosity (318.15 K, x1 = 0.333) [mPa·s]	viscosity (323.15 K, x1 = 0.333) [mPa·s]	viscosity (313.15 K, x1 = 0.25) [mPa·s]	viscosity (318.15 K, x1 = 0.25) [mPa·s]	viscosity (328.15 K, x1 = 0.25) [mPa·s]	viscosity (333.15 K, x1 = 0.25) [mPa·s]
CC[N+](CC)(CC)CC.[Cl-] + CC(=O)O	34.46	27.81	22.91	19.51	16.53	13.93				
C[P+](c1ccccc1)(c1ccccc1)c1ccccc1.[Br-] + OCCO							53.81	40.74	25.16	20.33
